Reference: US20040024055A1, “Pharmaceutical composition containing the exract of saururus chinensis baill useful as an anticancer agent and a process for the preparation thereof” (priority 2000, published 2004)
Converted amounts (≈) assume the structure as drawn.

Legend:
MCF-7 = test: MTT analysis, anticancer activity; assay type: cell-based, human; details: Homo sapiens, MCF7; MTT, 48 hr; read-out: IC50 MCF-7
SK-BR-3 = test: MTT analysis, anticancer activity; assay type: cell-based, human; details: Homo sapiens, SK-BR-3, 48 hr
LoVo = test: MTT analysis, anticancer activity; assay type: cell-based, human; details: Homo sapiens, LoVo; MTT, 48 hr
T98G = test: MTT analysis, anticancer activity; assay type: cell-based, human; details: Homo sapiens, T98G, 48 hr
A431 = test: MTT analysis, anticancer activity; assay type: cell-based, human; details: Homo sapiens, A-431, 48 hr
HT1080 = test: MTT analysis, anticancer activity; assay type: cell-based, human; details: Homo sapiens, HT-1080, 48 hr
NCI-H69 = test: MTT analysis, anticancer activity; assay type: cell-based, human; details: Homo sapiens, NCI-H69; MTT, 48 hr
SK-OV-3 = test: MTT analysis, anticancer activity; assay type: cell-based, human; details: Homo sapiens, SK-OV-3; MTT, 48 hr
CHO = test: MTT analysis, cytotoxicity against normal cell line; assay type: cell-based, Chinese hamster; details: Cricetulus griseus, CHO; MTT, 48 hr
Hep-2 = test: Adhesion of cancer cell to Collagen; assay type: cell-based, human
Description: (§1) After treating HNP-98701 on tissue culture plate coated with the matrices, cancer cell was attached thereupon. To be specific, 50 μl/ml of […], 2 μg/ml of laminin, 2 μg/ml of collagen and 2 μg/ml of gelatin were coated on the surface of 96-well microplate (Corning Co.) per well. After solidifying for 2 hr, HNP-98701 was added to each well and treated for 1 hr. […] After treating the substances for 1 hr, cancer cell was added to each cell, and it was cultured for 3 hr. […] After culturing these cell lines for 3 hr, they were centrifuged. After collecting biomass only, it was washed with distilled water or PBS buffer solution for three times. […] Then, absorbance was measured at 560-405 nm with automatic Eliza detector (Molecular […] Corp., USA). […] Each experiment was performed for three times repeatedly.

SK-Hep-1 = test: Adhesion of cancer cell to Collagen; assay type: cell-based, human
Description: as §1

SK-MEL-28 = test: Adhesion of cancer cell to Collagen; assay type: cell-based, human
Description: as §1

IC50 (MCF-7): 0.134 µg/mL (≈ 0.247 µM)
IC50 (SK-BR-3): 0.705 µg/mL (≈ 1.3 µM)
IC50 (LoVo): 0.0538 µg/mL (≈ 0.099 µM)
IC50 (T98G): 1.61 µg/mL (≈ 2.97 µM)
IC50 (A431): 0.0675 µg/mL (≈ 0.124 µM)
IC50 (HT1080): 0.719 µg/mL (≈ 1.32 µM)
IC50 (NCI-H69): 0.168 µg/mL (≈ 0.308 µM)
IC50 (SK-OV-3): > 50 µg/mL
Structure (SMILES): COc1cccc2c1C(=O)c1c(O)c3c(c(O)c1C2=O)C[C@@](O)(C(=O)CO)C[C@@H]3O[C@H]1C[C@H](N)[C@H](O)[C@H](C)O1 [Adriamycin, adriamycin (doxorubicin)]
IC50 (CHO): 5.22 µg/mL (≈ 9.61 µM)
Adhesion Hep-2 (%) (Hep-2; 0.1 μg/ml): 91.10%
Adhesion Hep-2 (%) (Hep-2; 1 μg/ml): 93.11%
Adhesion Hep-2 (%) (Hep-2; 10 μg/ml): 88.85%
Adhesion SK-Hep-1 (%) (SK-Hep-1; 0.1 μg/ml): 98.83%
Adhesion SK-Hep-1 (%) (SK-Hep-1; 1 μg/ml): 97.89%
Adhesion SK-Hep-1 (%) (SK-Hep-1; 10 μg/ml): 103.28%
Adhesion SK-MEL-28 (%) (SK-MEL-28; 0.1 μg/ml): 94.27%
Adhesion SK-MEL-28 (%) (SK-MEL-28; 1 μg/ml): 94.49%
Adhesion SK-MEL-28 (%) (SK-MEL-28; 10 μg/ml): 94.71%
